# According to PMC4410398, “Influence of Drug Resistance Mutations on the Activity of HIV-1 Subtypes A and B Integrases: a Comparative Study” (Acta Naturae, 2015):
# How the values were obtained:
# [1] = tested on: HIV-1 subtype CRF02_A/G isolate carrying a G118R substitution in the IN gene; design: method as in PMID 24710029; conditions: HIV-1 subtype CRF02_A/G isolate carrying G118R in the IN gene; cited from earlier work
# [2] = tested on: HIV-1 subtype B (clone pNL4-3) carrying G118R; design: method as in PMID 24710029; conditions: cited from earlier work
# INA G118R = INA G118R (Human immunodeficiency virus type 1 group M subtype A, UniProt P24740, G1258R/S1259P); type: biochemical, HIV-1 subtype A strain FSU-A
# [3] = molecular target: INA (consensus integrase of HIV-1 subtype A strain FSU-A), wild type (Human immunodeficiency virus type 1 group M subtype A, UniProt P24740, S1259P); type: biochemical
# INB G118R/E138K = molecular target: T1, INB G118R/E138K (Human immunodeficiency virus type 1 group M subtype B, UniProt P04585, E1285K/G1265R); experiment: Inhibition of homologous strand transfer reaction, INB G118R/E138K; type: biochemical, HIV-1 subtype B strain HXB-2
# T1 construct: The viral enzyme integrase (IN), which catalyzes the integration; His6 (N); made in house; host or cells: Escherichia coli Rosetta (DE3), pET-15b
# INB Q148K = molecular target: T2, INB Q148K (Human immunodeficiency virus type 1 group M subtype B, UniProt P04585, Q1295K); experiment: Inhibition of homologous strand transfer reaction, INB Q148K; type: biochemical, HIV-1 subtype B strain HXB-2
# T2 construct: The viral enzyme integrase (IN), which catalyzes the integration; His6 (N); made in house; host or cells: Escherichia coli Rosetta (DE3), pET-15b
# INA G118R/E138K = INA G118R/E138K (Human immunodeficiency virus type 1 group M subtype A, UniProt P24740, E1278K/G1258R/S1259P); type: biochemical, HIV-1 subtype A strain FSU-A
# INA E138K/Q148K = INA E138K/Q148K (Human immunodeficiency virus type 1 group M subtype A, UniProt P24740, E1278K/Q1288K/S1259P); type: biochemical, HIV-1 subtype A strain FSU-A
# INA G140S/Q148K = INA G140S/Q148K (Human immunodeficiency virus type 1 group M subtype A, UniProt P24740, G1280S/Q1288K/S1259P); type: biochemical, HIV-1 subtype A strain FSU-A
# INA Q148K = INA Q148K (Human immunodeficiency virus type 1 group M subtype A, UniProt P24740, Q1288K/S1259P); type: biochemical, HIV-1 subtype A strain FSU-A
# INB G118R = molecular target: T3, INB G118R (Human immunodeficiency virus type 1 group M subtype B, UniProt P04585, G1265R); experiment: Inhibition of homologous strand transfer reaction, INB G118R; type: biochemical, HIV-1 subtype B strain HXB-2
# T3 construct: The viral enzyme integrase (IN), which catalyzes the integration; His6 (N); made in house; host or cells: Escherichia coli Rosetta (DE3), pET-15b
# INA G140S = INA G140S (Human immunodeficiency virus type 1 group M subtype A, UniProt P24740, G1280S/S1259P); type: biochemical, HIV-1 subtype A strain FSU-A
# INB = tested on: INB; design: method as in PMID 23075516; conditions: literature value for INB; cited from earlier work
# INB G140S = molecular target: T4, INB G140S (Human immunodeficiency virus type 1 group M subtype B, UniProt P04585, G1287S); experiment: Inhibition of homologous strand transfer reaction, INB G140S; type: biochemical, HIV-1 subtype B strain HXB-2
# T4 construct: The viral enzyme integrase (IN), which catalyzes the integration; His6 (N); made in house; host or cells: Escherichia coli Rosetta (DE3), pET-15b
# [4] = molecular target: T5, INB (integrase of HIV-1 subtype B strain HXB-2), wild type (Human immunodeficiency virus type 1 group M subtype B, UniProt P04585); type: biochemical
# T5 construct: The viral enzyme integrase (IN), which catalyzes the integration; His6 (N); made in house; host or cells: Escherichia coli Rosetta (DE3), pET-15b
# INB G140S/Q148K = molecular target: T6, INB G140S/Q148K (Human immunodeficiency virus type 1 group M subtype B, UniProt P04585, G1287S/Q1295K); experiment: Inhibition of homologous strand transfer reaction, INB G140S/Q148K; type: biochemical, HIV-1 subtype B strain HXB-2
# T6 construct: The viral enzyme integrase (IN), which catalyzes the integration; His6 (N); made in house; host or cells: Escherichia coli Rosetta (DE3), pET-15b
# INA E138K = INA E138K (Human immunodeficiency virus type 1 group M subtype A, UniProt P24740, E1278K/S1259P); type: biochemical, HIV-1 subtype A strain FSU-A
# INB E138K = molecular target: T7, INB E138K (Human immunodeficiency virus type 1 group M subtype B, UniProt P04585, E1285K); experiment: Inhibition of homologous strand transfer reaction, INB E138K; type: biochemical, HIV-1 subtype B strain HXB-2
# T7 construct: The viral enzyme integrase (IN), which catalyzes the integration; His6 (N); made in house; host or cells: Escherichia coli Rosetta (DE3), pET-15b
# INB E138K/Q148K = molecular target: T8, INB E138K/Q148K (Human immunodeficiency virus type 1 group M subtype B, UniProt P04585, E1285K/Q1295K); experiment: Inhibition of homologous strand transfer reaction, INB E138K/Q148K; type: biochemical, HIV-1 subtype B strain HXB-2
# T8 construct: The viral enzyme integrase (IN), which catalyzes the integration; His6 (N); made in house; host or cells: Escherichia coli Rosetta (DE3), pET-15b
# [5] = homologous strand transfer, 2 h, 100 nM IN, read-out: Inhibitory activity, IC50
compound,measurement,setting,value
"C[C@@H]1CCO[C@H]2Cn3cc(C(=O)NCc4ccc(F)cc4F)c(=O)c(O)c3C(=O)N12 [DTG, dolutegravir]",FC (resistance),[1],> 100
same,FC (resistance),[2],10
CN(C)S(=O)(=O)c1cc(O)c(O)c2c1CN(Cc1ccc(F)c(Cl)c1)C2=O [XZ-259],ratio of IC50 for mutants over wt (FC),INA G118R,1
same,IC50,INA G118R; [5],0.04 ± 0.01 µM
same,ratio of IC50 for mutants over wt (FC),[3],1
same,IC50,[3]; [5],0.04 ± 0.015 µM
same,ratio of IC50 for mutants over wt (FC),INB G118R/E138K,1.2
same,IC50,INB G118R/E138K; [5],0.08 ± 0.015 µM
same,ratio of IC50 for mutants over wt (FC),INB Q148K,9.2
same,IC50,INB Q148K; [5],0.6 ± 0.1 µM
same,ratio of IC50 for mutants over wt (FC),INA G118R/E138K,0.75
same,IC50,INA G118R/E138K; [5],0.03 ± 0.01 µM
same,ratio of IC50 for mutants over wt (FC),INA E138K/Q148K,5
same,IC50,INA E138K/Q148K; [5],0.2 ± 0.05 µM
same,ratio of IC50 for mutants over wt (FC),INA G140S/Q148K,15
same,IC50,INA G140S/Q148K; [5],0.6 ± 0.15 µM
same,ratio of IC50 for mutants over wt (FC),INA Q148K,8.8
same,IC50,INA Q148K; [5],0.35 ± 0.1 µM
same,ratio of IC50 for mutants over wt (FC),INB G118R,1.2
same,IC50,INB G118R; [5],0.08 ± 0.02 µM
same,ratio of IC50 for mutants over wt (FC),INA G140S,3.8
same,IC50,INA G140S; [5],0.15 ± 0.05 µM
same,IC50,INB,0.077 µM
same,ratio of IC50 for mutants over wt (FC),INB G140S,2.3
same,IC50,INB G140S; [5],0.15 ± 0.05 µM
same,ratio of IC50 for mutants over wt (FC),[4],1
same,IC50,[4]; [5],0.065 ± 0.01 µM
same,ratio of IC50 for mutants over wt (FC),INB G140S/Q148K,13
same,IC50,INB G140S/Q148K; [5],0.85 ± 0.1 µM
same,ratio of IC50 for mutants over wt (FC),INA E138K,1.25
same,IC50,INA E138K; [5],0.05 ± 0.015 µM
same,ratio of IC50 for mutants over wt (FC),INB E138K,1
same,IC50,INB E138K; [5],0.07 ± 0.01 µM
same,ratio of IC50 for mutants over wt (FC),INB E138K/Q148K,7.7
same,IC50,INB E138K/Q148K; [5],0.5 ± 0.2 µM
